Source: patent publication EP4671240A1, “SALT CONTAINING AROMATIC RING DERIVATIVE ANTAGONIST, PREPARATION METHOD THEREFOR, AND APPLICATION THEREOF” (Jiangsu Hansoh Pharmaceutical Group Co., Ltd., priority 2023, dated 2024)

What was measured:
Type in all cases: in vitro ADME
[1] = Liver microsomal metabolism stability assay (rat); settings: compound 1 µM; for half-life at 1 µM: rat liver microsomes 0.5 mg/mL, NADPH/UDPGA, read-out: Rat t1/2; for Rat Remaining rate: rat liver microsomes, 60 min
Procedure: (§1) The objective of this experiment was to detect the stability of the example compounds in liver microsomes of rats, dogs and humans.
(§2) Formulation of compound working solution: compound stock solution was added to phosphate buffer to a final concentration of 20 µM.
(§3) Dilution was performed with 100 mM phosphate buffer to a final concentration of 0.625 mg/mL.
(§4) NADPH (reduced nicotinamide adenine dinucleotide phosphate) and UDPGA (uridine diphosphate glucuronic acid) were weighed, and 100 mM phosphate buffer was added to a final concentration of 20 mM.
(§5) 1 mg of Alamethicin was weighed, and 200 µL of DMSO was added to formulate a 5 mg/mL solution. Then dilution was performed with phosphate buffer to a final concentration of 50 µg/mL.
(§6) Stop solution: cold acetonitrile containing 100 ng/mL labetalol hydrochloride and 400 ng/mL tolbutamide as internal standards.
(§7) 400 µL of formulated liver microsomes, 25 µL of compound working solution and 25 µL of Alamethicin were added in sequence to a 96-well plate, and the mixture was pre-incubated at 37°C for 10 min. Then 50 µL of formulated NADPH/UDPGA was added to start the reaction and the mixture was incubated at 37°C. The total volume of the reaction system was 500 µL. The final contents of each component are as follows:
(§8) • Instrument: Shimadzu LC-30 AD; • Chromatographic column: XBridge® C18 (50*4.6 mm, 5 µm particle size); • Mobile phase: A: 0.1% formic acid solution, B: methanol • Elution gradient: 0.2-1.6 min 5% A to 95% A, 3.0-3.1 min 95% A to 5% A • Run time: 4.0 min.
(§9) • Instrument: API5500 liquid chromatography-mass spectrometer, AB Sciex; • Ion source: electrospray ionization source (ESI); • Drying gas: N2, temperature 500°C; • Electrospray voltage: 5000 V; • Detection mode: positive ion detection; • Scan mode: Multiple Reaction Monitoring (MRM) mode.

[2] = Liver microsomal metabolism stability assay (dog); settings: compound 1 µM; for half-life at 1 µM: dog liver microsomes 0.5 mg/mL, NADPH/UDPGA, read-out: Dog t1/2; for Dog Remaining rate: dog liver microsomes, 60 min
Procedure: as §1, §2, §3, §4, §5, §6, §7, §8, §9

[3] = Liver microsomal metabolism stability assay (human); settings: compound 1 µM; for half-life at 1 µM: human liver microsomes 0.5 mg/mL, NADPH/UDPGA, read-out: Human t1/2; for Human Remaining rate: human liver microsomes, 60 min
Procedure: as §1, §2, §3, §4, §5, §6, §7, §8, §9

CYP450 2C19 = molecular target: T1, CYP450 2C19 (Homo sapiens, UniProt P33261); assay: CYP enzyme single-point inhibition assay, 2C19; settings: human liver microsomes, single-point method
T1 construct: Human liver microsome incubation system was used; from tissue; host or cells: human liver microsomes
Procedure: (§10) Human liver microsome incubation system was used, and the single-point method was used to quickly predict the inhibition on CYP450 enzyme subtypes (1A2, 2C19, 2D6, 3A4-M, and 3A4-T) by compounds.
(§11) For 2.5 mM NADPH, 4.165 mg of NADPH (reduced nicotinamide adenine dinucleotide phosphate) was weighed and 100 mM phosphate buffer was added to a final volume of 2 mL. For 0.25 mg/mL microsomes, 50 µL of 20 mg/mL microsomes was mixed with […] of 100 mM phosphate buffer evenly.
(§12) The test example compounds were weighed, diluted to 10 mM with DMSO, and then diluted to 100 µM with 100 mM phosphate buffer.
(§13) • 1. Liver microsomes (40 µL), substrate (10 µL), and test compound (10 µL) were added to a 96-well plate, and the mixture was pre-incubated for 3 min. • 2. NADPH (40 µL) was added. • 3. At 20 min, acetonitrile stop solution containing internal standard (300 µL) was added. • 4. The mixture was centrifuged and the sample was loaded.

CYP450 2D6 = molecular target: T2, CYP450 2D6 (Homo sapiens, UniProt P10635); assay: CYP enzyme single-point inhibition assay, 2D6; settings: human liver microsomes, single-point method
T2 construct: Human liver microsome incubation system was used; from tissue; host or cells: human liver microsomes
Procedure: as §10, §11, §12, §13

CYP450 3A4-M = molecular target: T3, CYP450 3A4-M (Homo sapiens, UniProt P08684); assay: CYP enzyme single-point inhibition assay, 3A4-M; settings: human liver microsomes, single-point method
T3 construct: Human liver microsome incubation system was used; from tissue; host or cells: human liver microsomes
Procedure: as §10, §11, §12, §13

CYP450 3A4-T = molecular target: T4, CYP450 3A4-T (Homo sapiens, UniProt P08684); assay: CYP enzyme single-point inhibition assay, 3A4-T; settings: human liver microsomes, single-point method
T4 construct: Human liver microsome incubation system was used; from tissue; host or cells: human liver microsomes
Procedure: as §10, §11, §12, §13

T1 sequence (P33261 whole entry): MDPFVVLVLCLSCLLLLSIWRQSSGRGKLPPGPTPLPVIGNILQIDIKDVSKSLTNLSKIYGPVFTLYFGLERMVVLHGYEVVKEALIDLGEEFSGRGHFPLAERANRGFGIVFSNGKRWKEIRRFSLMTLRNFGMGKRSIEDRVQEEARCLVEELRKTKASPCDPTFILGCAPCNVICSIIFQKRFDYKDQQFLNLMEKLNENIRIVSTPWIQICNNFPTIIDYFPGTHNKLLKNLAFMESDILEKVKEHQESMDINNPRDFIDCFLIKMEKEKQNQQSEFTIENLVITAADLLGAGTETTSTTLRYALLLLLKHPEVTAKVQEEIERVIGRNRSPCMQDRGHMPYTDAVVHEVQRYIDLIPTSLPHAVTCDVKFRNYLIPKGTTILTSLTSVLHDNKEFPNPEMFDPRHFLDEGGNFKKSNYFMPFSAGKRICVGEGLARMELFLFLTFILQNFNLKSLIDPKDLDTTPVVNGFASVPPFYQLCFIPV
T4 sequence (P08684 whole entry): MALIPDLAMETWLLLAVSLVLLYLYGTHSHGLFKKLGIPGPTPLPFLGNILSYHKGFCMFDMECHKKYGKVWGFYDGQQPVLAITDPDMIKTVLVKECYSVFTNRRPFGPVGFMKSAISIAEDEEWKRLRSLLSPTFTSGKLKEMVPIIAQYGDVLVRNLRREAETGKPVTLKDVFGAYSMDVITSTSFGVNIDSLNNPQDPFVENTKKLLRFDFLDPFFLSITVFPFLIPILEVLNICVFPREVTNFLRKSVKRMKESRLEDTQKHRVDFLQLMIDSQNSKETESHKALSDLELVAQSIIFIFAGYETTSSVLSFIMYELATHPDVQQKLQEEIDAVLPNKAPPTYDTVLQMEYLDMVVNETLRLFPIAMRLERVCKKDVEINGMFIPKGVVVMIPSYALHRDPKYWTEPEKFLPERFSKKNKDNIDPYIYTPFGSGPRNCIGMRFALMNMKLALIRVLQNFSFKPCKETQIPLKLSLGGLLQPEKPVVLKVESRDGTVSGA
T3 sequence (P08684 whole entry): as above
T2 sequence (P10635 whole entry): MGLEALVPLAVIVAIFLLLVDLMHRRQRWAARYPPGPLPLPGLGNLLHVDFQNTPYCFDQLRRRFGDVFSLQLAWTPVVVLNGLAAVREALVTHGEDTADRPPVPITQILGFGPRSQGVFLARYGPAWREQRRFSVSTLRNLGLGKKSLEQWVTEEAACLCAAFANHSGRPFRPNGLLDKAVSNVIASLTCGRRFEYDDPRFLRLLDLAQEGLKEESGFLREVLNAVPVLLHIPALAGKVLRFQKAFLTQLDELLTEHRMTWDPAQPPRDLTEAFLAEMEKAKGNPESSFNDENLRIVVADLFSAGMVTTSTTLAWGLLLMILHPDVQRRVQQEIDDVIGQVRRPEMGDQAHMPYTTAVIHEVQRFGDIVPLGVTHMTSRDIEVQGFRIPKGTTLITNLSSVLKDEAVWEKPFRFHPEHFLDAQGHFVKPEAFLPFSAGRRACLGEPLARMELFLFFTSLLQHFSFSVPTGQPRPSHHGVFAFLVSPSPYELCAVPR

| SMILES | half-life at 1 µM [1] [min] | Rat Remaining rate [1] [%] | half-life at 1 µM [2] [min] | Dog Remaining rate [2] [%] | half-life at 1 µM [3] [min] | Human Remaining rate [3] [%] | IC50 (CYP450 2C19) [µM] | IC50 (CYP450 2D6) [µM] | IC50 (CYP450 3A4-M) [µM] | IC50 (CYP450 3A4-T) [µM] |
| --- | --- | --- | --- | --- | --- | --- | --- | --- | --- | --- |
| CCCCC1=NC2(CCCC2)C(=O)N1Cc1ccc(-c2ccccc2S(=O)(=O)Nc2noc(C)c2Cl)c(COCC)c1 [Example 8, 2-[4-[(2-Butyl-4-oxo-1,3-diazaspiro[4.4]non-1-en-3-yl)methyl]-2-(ethoxymethyl)phenyl]-N-(4-chloro-5-methyl-isoxazol-3-yl)benzenesulfonamide] | 29.9 | 23.3 | 28.5 | 23.6 | 36.5 | 32.0 | > 100 | > 100 | 24.9 | > 100 |
| [2H]C([2H])(c1ccc(-c2ccccc2S(=O)(=O)Nc2noc(C)c2Cl)c(COCC)c1)N1C(=O)C2(CCCC2)N=C1CCCC [Example 2, 4'-((2-Butyl-4-oxo-1,3-diazaspiro[4.4]non-1-en-3-yl)methyl-d2)-N-(4-chloro-5-methylisoxazol-3-yl)-2'-(ethoxymethyl)-[1,1'-biphenyl]-2-sulfonamide] | 26.3 | 29.4 | 29.9 | 24.6 | 38.5 | 33.0 | > 100 | > 100 | 14.7 | > 100 |
